Measurements reported in PMC6435570, “Zafirlukast Is a Dual Modulator of Human Soluble Epoxide Hydrolase and Peroxisome Proliferator-Activated Receptor γ” (Frontiers in Pharmacology, 2019).

Assays:
[1] = target: T1, human PPARδ ligand binding domain (Homo sapiens, UniProt Q03181); assay: PPAR reporter gene assay (Gal4 hybrid, PPARδ); format: cell-based; conditions: HEK-293T, reference L165,041 1 μM, tested up to 10 μM
T1 construct: expressed in transfected cells; host or cells: HEK-293T
T1 sequence (Q03181 211-439 limits assumed): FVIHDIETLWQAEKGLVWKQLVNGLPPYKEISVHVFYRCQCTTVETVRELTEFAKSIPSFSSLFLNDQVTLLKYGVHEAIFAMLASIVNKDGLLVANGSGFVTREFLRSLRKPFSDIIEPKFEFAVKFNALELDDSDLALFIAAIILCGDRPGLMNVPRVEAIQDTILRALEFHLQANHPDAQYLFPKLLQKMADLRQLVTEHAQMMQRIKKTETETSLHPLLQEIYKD
Procedure: (§1) HEK-293T cells were seeded in 96-well plates (2.5 × 10^4 cells/well) and were allowed to adhere overnight. Before transfection, medium was changed to Opti-MEM without supplements. Transient plasmid transfection was carried out using Lipofectamine LTX reagent (Invitrogen, Carlsbad, CA, United States) according to the manufacturer’s protocol with pFR-Luc (Stratagene, La Jolla, CA, United States), pRL-SV40 (Promega, Fitchburg, MA, United States) and pFA-CMV-PPAR-LBD ([Rau et al., 2006]). 5 h after transfection, medium was changed to Opti-MEM supplemented with penicillin (100 U/mL) and streptomycin (100 μg/mL), now additionally containing 0.1% DMSO and the respective test compound or 0.1% DMSO alone as untreated control. Each concentration was tested in triplicates and each experiment was repeated independently at least four times. Following overnight (12–16 h) incubation with the test compounds, cells were assayed for luciferase activity using the Dual-Glo^TM Luciferase Assay System (Promega, Fitchburg, MA, United States) according to the manufacturer’s protocol. Luminescence was measured with an Infinite M200 luminometer (Tecan Group Ltd., Männedorf, Switzerland). Normalization of transfection efficiency and cell growth was done by division of firefly luciferase data by renilla luciferase data and multiplying the value by 1000 resulting in relative light units (RLU). Fold activation was obtained by dividing the mean RLU of a test compound at a respective concentration by the mean RLU of untreated control. Relative activation was obtained by dividing the fold activation of a test compound at a respective concentration by the fold activation of the respective PPARα, γ or δ full agonist GW-7647, pioglitazone or L165,041 at 1 μM. EC50 and standard deviation were calculated with the mean relative activation values of at least four independent experiments by SigmaPlot 10.0 (Systat Software GmbH, Erkrath, Germany) using a four parameter logistic regression. […]

[2] = target: T2, human PPARα ligand binding domain (Homo sapiens, UniProt Q07869); assay: PPAR reporter gene assay (Gal4 hybrid, PPARα); format: cell-based; conditions: HEK-293T, reference GW7647 1 μM, tested up to 10 μM
T2 construct: expressed in transfected cells; host or cells: HEK-293T
T2 sequence (Q07869 239-466 limits assumed): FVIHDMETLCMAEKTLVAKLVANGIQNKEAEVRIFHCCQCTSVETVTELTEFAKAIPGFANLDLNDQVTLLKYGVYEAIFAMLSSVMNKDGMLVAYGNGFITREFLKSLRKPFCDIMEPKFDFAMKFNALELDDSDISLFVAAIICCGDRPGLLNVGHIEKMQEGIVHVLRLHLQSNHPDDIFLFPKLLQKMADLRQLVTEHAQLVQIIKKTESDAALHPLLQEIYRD
Procedure: as §1

[3] = target: T3, PPARγ-LBD / CBP-derived peptide (Homo sapiens, UniProt P37231); assay: PPARγ coactivator (CBP) recruitment assay, HT-FRET; format: biochemical; conditions: for Induction of CBP recruitment by the compound itself: absence of rosiglitazone
T3 construct: 12 nM recombinant PPARγ-LBD fused to N-terminal GFP as FRET acceptor
T3 sequence (P37231 238-503 limits assumed): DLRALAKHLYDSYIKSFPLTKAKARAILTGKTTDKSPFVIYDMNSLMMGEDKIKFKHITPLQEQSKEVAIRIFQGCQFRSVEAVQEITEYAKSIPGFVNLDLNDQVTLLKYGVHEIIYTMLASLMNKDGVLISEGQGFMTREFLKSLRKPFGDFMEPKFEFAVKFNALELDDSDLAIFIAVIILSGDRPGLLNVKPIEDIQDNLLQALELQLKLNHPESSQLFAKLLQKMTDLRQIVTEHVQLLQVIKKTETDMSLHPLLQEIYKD
Excerpt: Recruitment of coactivator-derived peptides to the PPARγ-LBD was studied by homogeneous time-resolved fluorescence resonance energy transfer (HT-FRET). Terbium cryptate as streptavidin conjugate (Cisbio assays, France) was used as FRET donor. Peptides derived from the coactivator cyclic AMP response element-binding protein (CREB)-binding protein (CBP) [biotin-[…]] encompassing the coactivator consensus motif LxxLL and N-terminal biotin for stable coupling to streptavidin were purchased from Eurogentec GmbH (Cologne, Germany). Solutions containing 12 nM recombinant PPARγ-LBD fused to N-terminal GFP as FRET acceptor and 12 nM FRET donor complex with the CBP-derived peptide as well as 1% DMSO with test compound at varying concentrations or DMSO alone were prepared in HEPES buffer [25 mM HEPES pH 7.5 adjusted with KOH, 150 mM KF, 5% (w/v) glycerol, 0.1% (w/v) CHAPS, 5 mM DTT]. After 2 h incubation at RT, the fluorescence intensities (FI) at 520 nm (acceptor) and 620 nm (donor reference) after excitation at 340 nm were recorded on a Tecan Infinite F200 (Tecan Group Ltd., Männedorf, Switzerland). FI520nm was divided by FI620nm and multiplied with 10,000 giving a dimensionless HTRF signal. Recruitment of coactivator-derived peptides to the PPARγ-LBD was validated with increasing concentrations of rosiglitazone. Recruitment of CBP was referenced to recruitment in response to 1 μM rosiglitazone (∼EC80) and reported as relative coactivator recruitment.
We induced this post-translational modification by short-term treatment of the differentiated cells with the cytokine TNFα, generating a pro-inflammatory milieu. […] For this, we used an assay system in which the recruitment of the fluorescence-tagged PPARγ coactivator CBP to the PPARγ-LBD was assessed by time-resolved FRET technique in presence and absence of rosiglitazone.

[4] = system: PPARγ target genes (LPL, GLUT-4, FABP-4, adiponectin) in 3T3-L1 adipocytes; assay: PPARγ target gene mRNA expression in differentiated 3T3-L1 adipocytes (qRT-PCR); format: cell-based, murine; conditions: after 14 days; for mRNA expression of PPARγ target genes (LPL, GLUT-4, FABP-4, adiponectin): normalized to cells with activation cocktail only
Procedure: 3T3-L1 cells were differentiated into adipocytes for 14 days according to the protocol of [Zebisch et al. (2012)]. For this, cells were seeded in 6-well plates ([…]) and differentiation was induced after 48 h by addition of a differentiation cocktail containing 1 μg/mL insulin, 0.25 μM dexamethasone and 0.5 mM isobutylmethylxanthine (IBMX) in DMEM supplemented with 10% FCS and 1% PS. […] After 2 days, medium was replaced by DMEM supplemented with 10% FCS, 1% PS and 1 μg/mL insulin for 2 more days. Afterwards, cells were kept for lipid droplet accumulation in DMEM containing 10% FCS and 1% PS until day 15. Media were replaced every other day.
3T3-L1 cells were lysed using TRIzol® reagent (Ambion Life Technologies, Carlsbad, CA, United States). Subsequently, mRNA was isolated following the manufacturers protocol. DNA contaminations were digested using DNAse (DNase I, RNase-free Kit; Thermo Scientific, Waltham, MA, United States) and mRNA concentrations were determined using a NanoDrop^TM2000 spectrophotometer (Thermo Scientific, Waltham, MA, United States). Afterwards, reverse transcription was performed using the High Capacity RNA-to-cDNA Kit (Applied Biosystems, Foster City, CA, United States) following the manufacturers protocol. […] Relative mRNA expression was determined by the 2^-ΔΔCt method normalized to murine non-POU domain-containing octamer binding protein (Nono). All samples were measured in triplicates and experiments were repeated independently at least three times.
To gain further insight in PPARγ activation after compound treatment, mature 3T3-L1 adipocytes were harvested after 14 days and mRNA was isolated, reverse transcribed and subjected to quantitative RT-PCR. mRNA expression of the PPARγ target genes lipoprotein lipase (LPL), the glucose transporter 4 (GLUT-4), the fatty acid binding protein 4 (FABP-4) and adiponectin was monitored by quantitative PCR (Figure 3A–D and Supplementary Figure S1). […]

`CC(C)(O)c1ccccc1CC[C@@H](SCC1(CC(=O)O)CC1)c1cccc(/C=C/c2ccc3ccc(Cl)cc3n2)c1` [Montelukast, montelukast] was tested, and the “PPARδ EC50” value [1] was “i.a. @ 10 μM”, the “PPARα EC50” value [2] was “i.a. @ 10 μM” and the “Induction of CBP recruitment by the compound itself” value [3] was “did not induce CBP recruitment itself in concentrations up to 20 μM”. For the same compound, the “Antagonism of rosiglitazone induced CBP recruitment” value ([3]; presence of rosiglitazone (1 μM)) was “weakly antagonized the rosiglitazone induced CBP recruitment in concentrations above 3 μM” and the “mRNA expression of PPARγ target genes (LPL, GLUT-4, FABP-4, adiponectin)” value [4] was “did not influence the expression”.
`COc1cc(C(=O)NS(=O)(=O)c2ccccc2C)ccc1Cc1cn(C)c2ccc(NC(=O)OC3CCCC3)cc12` [Zafirlukast, zafirlukast] was tested, and the “PPARδ EC50” value [1] was “i.a. @ 10 μM”, the “PPARα EC50” value [2] was “i.a. @ 10 μM” and the “Induction of CBP recruitment by the compound itself” value [3] was “did not induce CBP recruitment itself”. The IC50 ([3]; rosiglitazone 1 μM, after 2 h, read-out: IC50 for antagonism of rosiglitazone induced CBP recruitment) was 4.7 µM, the “Adiponectin mRNA level” value ([4]; compared to the other target genes) was “elevated adiponectin levels more effectively compared to the other target genes” and the “mRNA expression of PPARγ target genes (LPL, GLUT-4, FABP-4, adiponectin)” value [4] was “dose-dependently induced target gene expression although to a lesser extent compared to rosiglitazone”.
